The source of these data is ChEMBL document CHEMBL1255556, “6-Alkoxyisoindolin-1-one based dopamine D2 partial agonists as potential antipsychotics” (Bioorg Med Chem Lett, 2010).

By Ki is commonly meant the equilibrium dissociation constant of an inhibitor or competing ligand from its target. As usually defined, the CLint scaled is the rate of metabolic loss divided by the concentration.

Series [1] has as its target T1, 5-hydroxytryptamine receptor 1A (Homo sapiens) (UniProt P08908).
T1 sequence (whole entry): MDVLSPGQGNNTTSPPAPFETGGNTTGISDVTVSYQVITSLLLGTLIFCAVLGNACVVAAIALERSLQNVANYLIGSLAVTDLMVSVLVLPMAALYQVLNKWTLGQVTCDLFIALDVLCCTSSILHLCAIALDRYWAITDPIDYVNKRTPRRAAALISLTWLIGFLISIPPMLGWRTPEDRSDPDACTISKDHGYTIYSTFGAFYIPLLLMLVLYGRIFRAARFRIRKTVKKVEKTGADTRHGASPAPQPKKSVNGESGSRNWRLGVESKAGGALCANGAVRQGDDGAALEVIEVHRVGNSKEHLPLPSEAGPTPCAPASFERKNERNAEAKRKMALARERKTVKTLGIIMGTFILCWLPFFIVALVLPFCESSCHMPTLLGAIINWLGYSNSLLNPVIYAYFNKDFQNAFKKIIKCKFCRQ
As to the kind of experiment: Intrinsic activity at human […] 5HT1A receptor expressed in HeLa cells by FLIPR assay. The format is cell-based.

Series [2] has as its target T1, 5-hydroxytryptamine receptor 1A (Homo sapiens). As to the kind of experiment: Intrinsic activity at human […] 5HT1A receptor expressed in HeLa cells by [3H]-thymidine uptake assay. The format is cell-based.
Series [3] addresses Voltage-gated inwardly rectifying potassium channel KCNH2 (Homo sapiens, UniProt Q12809).
Description: Displacement of [3H]dofetilide from human ERG
In series [4] the target is T2, 5-hydroxytryptamine receptor 1A (Homo sapiens, UniProt P08908).
T2 sequence (P08908 whole entry): T1 sequence (whole entry)
As to the kind of experiment: Binding affinity to human 5HT1A receptor expressed in HeLa cells by scintillation proximity assay. The class given is cell-based. For orientation: SPA uses beads or plates that emit light when radiolabelled molecules are held near them.

In series [5] the target is T2, 5-hydroxytryptamine receptor 1A. As to the kind of experiment: biochemical.
Description: Displacement of [3H]-8-OH-DPAT from human 5HT1A receptor expressed in HeLa cells
Series [6] deals with 5-hydroxytryptamine receptor 2A (Homo sapiens, UniProt P28223). Description: Binding affinity to human 5HT2A receptor.
Series [7] has as its system Mus musculus. Description: Induction of catalepsy in mouse at 30 mg/kg, po. The format is organism-based. More on the design: dose 30 mg/kg, route oral. The following applies: in vivo.
In series [8] the test system is Mus musculus. As to the kind of experiment: Antipsychotic activity in po dosed mouse assessed as inhibition of spontaneous locomotor activity. The format is functional. To be noted: for minimal effective dose: read-out: MED.
The test system of series [9] is Rattus norvegicus. As to the kind of experiment: Ex vivo D2 receptor occupancy in po dosed rat striatum assessed as inhibition [3H]-raclopride binding at 243 ng/ml plasma concentration. The format is functional. More on the design: scale not given: the % may be the effect or the level left.
Series [10] relates to Rattus norvegicus. As to the kind of experiment: Ex vivo D2 receptor occupancy in rat striatum assessed as inhibition [3H]-raclopride binding at 30 mg/kg, po. More on the design: scale not given: the % may be the effect or the level left. The format is functional.
The subject of series [11] is Mus musculus. Description: Induction of catalepsy in mouse at 10 mg/kg, po. The class given is organism-based. More on the design: dose 10 mg/kg, route oral. The following applies: in vivo.
Series [12] deals with Rattus norvegicus. As to the kind of experiment: Ex vivo D2 receptor occupancy in po dosed rat striatum assessed as inhibition [3H]-raclopride binding at 82 ng/ml plasma concentration. The class given is functional. More on the design: scale not given: the % may be the effect or the level left.
The nature of series [13]: Ratio of drug level in brain to plasma in po dosed rat. The format is ADME, organism-based. To be noted: read-out: BPR.
The subject of series [14] is Rattus norvegicus. Description: Ex vivo D2 receptor occupancy in rat striatum assessed as inhibition [3H]-raclopride binding at 1 mg/kg, po. The class given is functional. More on the design: scale not given: the % may be the effect or the level left.
In series [15] the test system is Mus musculus. Description: In vivo intrinsic activity at D2 receptor in mouse brain assessed as inhibition of gamma-butyrolactone-induced increase in DOPA synthesis at 30 mg/kg, po administered 60 mins before gamma-butyrolactone challenge measured after 30 mins. The format is functional.
For series [16], the target named is T3, Sodium-dependent serotonin transporter (Homo sapiens, UniProt P31645). As to the kind of experiment: Displacement of [3H]-citalopram from human serotonin transporter expressed in HEK 293 cells. The class given is cell-based, HEK293. (In general: In a radioligand displacement assay an active substance lowers the binding of a labelled ligand.)
A short description of series [17]: Apparent intrinsic clearance in human liver microsomes. The class given is ADME, Microsome.
Series [18] relates to Rattus norvegicus. As to the kind of experiment: Ex vivo D2 receptor occupancy in po dosed rat striatum assessed as inhibition [3H]-raclopride binding at 47 ng/ml plasma concentration. More on the design: scale not given: the % may be the effect or the level left. The class given is functional.
For series [19], the system named is Rattus norvegicus. Description: Ex vivo D2 receptor occupancy in po dosed rat striatum assessed as inhibition [3H]-raclopride binding at 188 ng/ml plasma concentration. The class given is functional. More on the design: scale not given: the % may be the effect or the level left.
For series [20], the target named is T3, Sodium-dependent serotonin transporter. As to the kind of experiment: Displacement of [3H]-citalopram from human serotonin transporter expressed in HEK 293 cells by scintillation proximity assay. The format is cell-based, HEK293.

Chain of Voltage-gated inwardly rectifying potassium channel KCNH2 (Q12809 whole entry): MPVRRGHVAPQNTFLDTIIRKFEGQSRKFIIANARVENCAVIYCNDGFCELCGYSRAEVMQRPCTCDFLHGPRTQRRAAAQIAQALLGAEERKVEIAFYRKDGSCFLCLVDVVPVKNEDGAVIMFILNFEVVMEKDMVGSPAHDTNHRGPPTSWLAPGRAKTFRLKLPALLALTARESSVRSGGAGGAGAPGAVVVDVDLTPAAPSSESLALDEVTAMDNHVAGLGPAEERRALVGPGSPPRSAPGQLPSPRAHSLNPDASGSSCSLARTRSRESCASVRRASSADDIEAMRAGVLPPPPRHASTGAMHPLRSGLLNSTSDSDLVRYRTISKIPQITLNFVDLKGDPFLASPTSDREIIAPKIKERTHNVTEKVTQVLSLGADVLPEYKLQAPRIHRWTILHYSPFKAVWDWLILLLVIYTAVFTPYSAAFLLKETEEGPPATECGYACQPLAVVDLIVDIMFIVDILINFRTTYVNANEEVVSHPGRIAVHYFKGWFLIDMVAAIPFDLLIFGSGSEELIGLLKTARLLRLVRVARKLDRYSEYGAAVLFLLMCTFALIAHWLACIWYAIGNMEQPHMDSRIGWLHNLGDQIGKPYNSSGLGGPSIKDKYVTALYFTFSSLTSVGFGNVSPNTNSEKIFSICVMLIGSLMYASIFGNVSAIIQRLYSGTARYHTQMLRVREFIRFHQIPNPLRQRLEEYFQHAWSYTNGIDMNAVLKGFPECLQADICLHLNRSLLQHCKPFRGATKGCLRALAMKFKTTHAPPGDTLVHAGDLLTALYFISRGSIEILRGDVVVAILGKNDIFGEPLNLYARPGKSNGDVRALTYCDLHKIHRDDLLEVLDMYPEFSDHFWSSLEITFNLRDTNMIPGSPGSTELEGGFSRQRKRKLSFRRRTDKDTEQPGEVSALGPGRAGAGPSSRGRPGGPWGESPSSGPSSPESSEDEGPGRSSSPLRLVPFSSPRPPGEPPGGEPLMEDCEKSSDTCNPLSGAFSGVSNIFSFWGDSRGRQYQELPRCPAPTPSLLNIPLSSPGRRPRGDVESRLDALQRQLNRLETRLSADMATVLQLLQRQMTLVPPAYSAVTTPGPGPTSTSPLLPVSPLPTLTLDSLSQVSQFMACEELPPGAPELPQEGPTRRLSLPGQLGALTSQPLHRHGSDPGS
Chain of 5-hydroxytryptamine receptor 2A (P28223 whole entry): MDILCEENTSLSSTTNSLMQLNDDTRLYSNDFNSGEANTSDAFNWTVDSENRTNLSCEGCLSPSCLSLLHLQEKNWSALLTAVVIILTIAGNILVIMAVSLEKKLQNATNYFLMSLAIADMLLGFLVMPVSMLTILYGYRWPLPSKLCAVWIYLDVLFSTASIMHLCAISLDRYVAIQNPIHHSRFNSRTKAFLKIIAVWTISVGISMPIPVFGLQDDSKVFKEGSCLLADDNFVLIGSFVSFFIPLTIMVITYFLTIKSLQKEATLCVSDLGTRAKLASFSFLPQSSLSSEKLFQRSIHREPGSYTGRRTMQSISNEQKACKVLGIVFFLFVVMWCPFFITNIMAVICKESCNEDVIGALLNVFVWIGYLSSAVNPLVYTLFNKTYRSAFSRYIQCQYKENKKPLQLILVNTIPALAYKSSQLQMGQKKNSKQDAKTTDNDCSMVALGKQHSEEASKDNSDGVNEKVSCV
T3 sequence (P31645 whole entry): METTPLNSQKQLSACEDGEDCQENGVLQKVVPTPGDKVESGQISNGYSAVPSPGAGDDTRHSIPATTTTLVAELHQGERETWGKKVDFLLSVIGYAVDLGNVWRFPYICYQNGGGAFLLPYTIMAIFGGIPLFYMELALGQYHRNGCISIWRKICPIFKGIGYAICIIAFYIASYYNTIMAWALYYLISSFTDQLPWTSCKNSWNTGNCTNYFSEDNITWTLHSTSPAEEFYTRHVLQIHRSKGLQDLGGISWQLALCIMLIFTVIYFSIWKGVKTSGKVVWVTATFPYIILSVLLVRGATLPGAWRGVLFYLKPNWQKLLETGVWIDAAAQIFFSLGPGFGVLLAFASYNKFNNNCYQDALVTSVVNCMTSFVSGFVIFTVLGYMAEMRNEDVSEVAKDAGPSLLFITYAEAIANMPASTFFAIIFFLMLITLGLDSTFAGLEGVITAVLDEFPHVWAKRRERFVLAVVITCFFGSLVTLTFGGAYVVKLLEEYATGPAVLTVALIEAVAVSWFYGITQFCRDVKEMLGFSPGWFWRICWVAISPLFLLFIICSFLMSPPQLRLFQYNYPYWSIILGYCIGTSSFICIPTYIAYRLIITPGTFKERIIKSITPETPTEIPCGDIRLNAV

`O=C1NCc2ccc(OCCCN3CCN(c4cccc5ccccc45)CC3)cc21`: the Intrinsic activity in series [1] was 65.9%; in series [2], 88.8%. In addition, the results for the Ki in [3], in series [4] and in [5] were 2810 nM, 0.541 nM and 0.0152 nM, respectively.
As for `O=C1NCc2ccc(OCCCN3CCN(c4cccc5cc(F)ccc45)CC3)cc21`, the Ki in series [3] turned out to be 439 nM; in series [6] it was 3.54 nM; in [5], 1.54 nM.
Molecule `c1ccc2c(N3CCN(CCCOc4ccc5c(c4)CNC5)CC3)cccc2c1` gave an Intrinsic activity in series [2] of 77.8%. In addition, the results for the Ki in series [6] and in series [5] were 1.76 nM and 0.149 nM, respectively.
On to `O=C1NCc2ccc(OCCCCN3CCN(c4cccc5cccc(F)c45)CC3)cc21`, for which the Activity result was “Non-toxic” in the series with Mus musculus [7]; “Dose-dependent effect” in the series with Mus musculus [8]; 92.3% in the series with Rattus norvegicus [9]; 99% with Rattus norvegicus [10]; “Non-toxic” in the series with Mus musculus [11]; 78.5% in the series with Rattus norvegicus [12]. In addition, the Activity in the series with Rattus norvegicus [14] came to 53%. The minimal effective dose with Mus musculus [8] came out at 1 mg/kg. For the same molecule, the Ki in series [3] was 2060 nM; in [4], 0.951 nM; in series [6], 1.83 nM; in [16], 26 nM; in series [5], 0.0504 nM. The Kp in series [13] was determined as 1.81. In addition, the Intrinsic activity in the series on Mus musculus [15] came out at 60%.
`O=C1NCc2ccc(OCCCN3CCN(c4cccc5cc(F)c(F)cc45)CC3)cc21`: the values for the Ki in series [3], in series [6] and in [5] were 907 nM, 20.1 nM and 0.179 nM, respectively.
In the same order, the values of `O=C1NCc2ccc(OCCCCN3CCN(c4cccc5cc(F)ccc45)CC3)cc21` are 969 nM, 9.53 nM and 13.4 nM.
On to `O=C1CCc2ccc(OCCCCN3CCN(c4cccc(Cl)c4Cl)CC3)cc2N1` [ARIPIPRAZOLE], for which the Activity result in the series with Mus musculus [7] is given as “Non-toxic”. Further, in the series on Mus musculus [8], the minimal effective dose amounted to 3 mg/kg. In addition, the Intrinsic activity (in series [1]; in the series on Mus musculus [15]) was 43% each time. Besides, the CLint scaled in [17] was 31.7 mL/min/kg.
With `c1ccc2c(N3CCN(CCCCOc4ccc5c(c4)CNC5)CC3)cccc2c1`, the Ki worked out at 1560 nM in series [3], 5.07 nM in series [6] and 0.204 nM in series [5].
Take `O=C1NCc2ccc(OCCCCN3CCN(c4cccc5ccccc45)CC3)cc21`: the Activity with Rattus norvegicus [18] was 80%; in the series with Mus musculus [8], “Dose-dependent effect”; in the series on Rattus norvegicus [19], 94%; in the series with Rattus norvegicus [14] it was 55%. For the same molecule, the minimal effective dose with Mus musculus [8] came out at 1 mg/kg. Further, the values for the Intrinsic activity (in series [2]; with Mus musculus [15]) were 66.7% and 43%, respectively. Further, the CLint scaled in series [17] is 23.7 mL/min/kg. Also, the Ki in series [3] was determined as 1850 nM; in series [20], 445 nM; in [4], 2.22 nM; in series [6], 4.95 nM; in series [16], 16.5 nM; in [5] it was 0.151 nM. For the same molecule, the Kp in [13] is 2.49.
In [2], `Fc1ccc2cccc(N3CCN(CCCOc4ccc5c(c4)CNC5)CC3)c2c1` displayed an Intrinsic activity of 73.3%. The Ki came out at 931 nM in series [3], 0.72 nM in [6] and 0.102 nM in series [5].
